Test results from ChEMBL document CHEMBL3259629, “Discovery and optimization of piperidyl-1,2,3-triazole ureas as potent, selective, and in vivo-active inhibitors of α/β-hydrolase domain containing 6 (ABHD6)” (J Med Chem, 2013).

Columns and labels:
Details in all cases: Neuro2a, 3 nM
[1] = target: T1, Acyl-coenzyme A thioesterase 2, mitochondrial (Mus musculus) (UniProt Q9QYR9)
T1 sequence (whole entry): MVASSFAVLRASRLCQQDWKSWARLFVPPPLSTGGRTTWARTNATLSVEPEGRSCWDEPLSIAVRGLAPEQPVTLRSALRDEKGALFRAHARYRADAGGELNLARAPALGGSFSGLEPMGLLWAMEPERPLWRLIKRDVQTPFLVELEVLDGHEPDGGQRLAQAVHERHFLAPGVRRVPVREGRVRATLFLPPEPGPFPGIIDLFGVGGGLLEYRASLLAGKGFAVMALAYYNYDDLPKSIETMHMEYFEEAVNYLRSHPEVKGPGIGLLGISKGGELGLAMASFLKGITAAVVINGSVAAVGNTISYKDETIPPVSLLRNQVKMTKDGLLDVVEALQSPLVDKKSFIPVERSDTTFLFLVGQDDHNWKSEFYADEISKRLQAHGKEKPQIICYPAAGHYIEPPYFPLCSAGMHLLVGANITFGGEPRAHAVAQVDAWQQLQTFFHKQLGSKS
Description: Inhibition of Acot2 in mouse Neuro2a cells at 3 nM after 4 hrs by ABPP-SILAC assay

[2] = target: T2, Patatin-like phospholipase domain-containing protein 6 (Mus musculus) (UniProt Q3TRM4)
T2 sequence (whole entry): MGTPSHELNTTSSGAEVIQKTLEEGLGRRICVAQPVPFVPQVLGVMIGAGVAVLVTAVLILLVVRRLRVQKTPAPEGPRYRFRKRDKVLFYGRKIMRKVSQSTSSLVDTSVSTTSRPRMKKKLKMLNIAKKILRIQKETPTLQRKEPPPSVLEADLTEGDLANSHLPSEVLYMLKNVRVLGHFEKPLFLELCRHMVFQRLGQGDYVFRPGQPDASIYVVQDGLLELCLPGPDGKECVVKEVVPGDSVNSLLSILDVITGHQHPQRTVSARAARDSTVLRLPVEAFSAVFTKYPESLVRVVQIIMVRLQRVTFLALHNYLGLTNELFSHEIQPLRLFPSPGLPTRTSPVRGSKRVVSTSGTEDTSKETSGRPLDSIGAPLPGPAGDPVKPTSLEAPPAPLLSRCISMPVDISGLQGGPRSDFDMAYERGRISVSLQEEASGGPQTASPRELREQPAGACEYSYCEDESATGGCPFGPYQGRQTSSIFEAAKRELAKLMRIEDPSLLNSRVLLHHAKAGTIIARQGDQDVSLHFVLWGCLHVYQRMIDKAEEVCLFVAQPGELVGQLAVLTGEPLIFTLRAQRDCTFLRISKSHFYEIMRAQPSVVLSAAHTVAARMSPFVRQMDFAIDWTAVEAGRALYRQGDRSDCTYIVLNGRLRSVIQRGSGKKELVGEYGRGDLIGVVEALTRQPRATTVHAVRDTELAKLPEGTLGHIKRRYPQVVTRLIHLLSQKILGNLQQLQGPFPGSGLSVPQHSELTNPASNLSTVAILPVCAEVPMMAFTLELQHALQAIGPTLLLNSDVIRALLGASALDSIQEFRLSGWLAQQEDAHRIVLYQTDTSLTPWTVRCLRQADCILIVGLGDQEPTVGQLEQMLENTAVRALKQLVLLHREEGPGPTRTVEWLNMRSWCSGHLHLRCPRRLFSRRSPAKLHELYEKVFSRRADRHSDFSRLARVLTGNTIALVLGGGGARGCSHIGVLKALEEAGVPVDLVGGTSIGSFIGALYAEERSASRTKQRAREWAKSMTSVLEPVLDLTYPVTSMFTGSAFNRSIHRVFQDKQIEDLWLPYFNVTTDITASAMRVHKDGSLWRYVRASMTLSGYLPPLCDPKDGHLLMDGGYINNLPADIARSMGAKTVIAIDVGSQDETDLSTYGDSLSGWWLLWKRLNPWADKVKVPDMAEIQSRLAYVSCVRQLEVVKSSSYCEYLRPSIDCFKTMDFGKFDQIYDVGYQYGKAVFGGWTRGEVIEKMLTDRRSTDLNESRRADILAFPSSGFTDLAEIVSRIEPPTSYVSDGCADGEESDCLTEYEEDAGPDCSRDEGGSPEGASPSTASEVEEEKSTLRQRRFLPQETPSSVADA
Description: Inhibition of Pnpla6 in mouse Neuro2a cells at 3 nM after 4 hrs by ABPP-SILAC assay

[3] = target: T3, Diacylglycerol lipase-beta (Mus musculus) (UniProt Q91WC9)
T3 sequence (whole entry): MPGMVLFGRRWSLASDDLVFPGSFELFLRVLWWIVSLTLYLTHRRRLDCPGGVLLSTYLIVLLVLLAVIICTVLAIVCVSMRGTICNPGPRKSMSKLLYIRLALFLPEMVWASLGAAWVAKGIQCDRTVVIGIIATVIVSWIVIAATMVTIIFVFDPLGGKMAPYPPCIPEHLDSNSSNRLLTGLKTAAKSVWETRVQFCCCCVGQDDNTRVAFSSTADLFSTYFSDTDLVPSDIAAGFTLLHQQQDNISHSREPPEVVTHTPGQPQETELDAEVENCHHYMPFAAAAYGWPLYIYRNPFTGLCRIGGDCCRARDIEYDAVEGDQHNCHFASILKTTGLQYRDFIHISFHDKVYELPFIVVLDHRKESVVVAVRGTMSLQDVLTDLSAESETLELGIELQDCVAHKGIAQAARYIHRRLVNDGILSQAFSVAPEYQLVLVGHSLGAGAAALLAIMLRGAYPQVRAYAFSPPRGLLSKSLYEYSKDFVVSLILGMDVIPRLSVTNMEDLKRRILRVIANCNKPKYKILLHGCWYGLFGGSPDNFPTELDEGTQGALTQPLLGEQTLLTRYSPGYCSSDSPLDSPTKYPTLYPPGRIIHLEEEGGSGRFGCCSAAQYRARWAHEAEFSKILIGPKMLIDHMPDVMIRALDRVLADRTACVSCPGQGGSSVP
Description: Inhibition of Daglb in mouse Neuro2a cells at 3 nM after 4 hrs by ABPP-SILAC assay

[4] = target: Serine hydrolase RBBP9 (Mus musculus) (UniProt O88851)
Sequence of Serine hydrolase RBBP9 (Mus musculus) (O88851 whole entry): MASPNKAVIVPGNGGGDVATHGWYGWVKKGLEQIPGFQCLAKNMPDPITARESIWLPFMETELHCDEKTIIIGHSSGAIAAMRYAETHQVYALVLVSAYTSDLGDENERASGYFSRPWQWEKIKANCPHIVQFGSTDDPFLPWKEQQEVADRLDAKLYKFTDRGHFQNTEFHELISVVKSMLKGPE
Description: Inhibition of Rbbp9 in mouse Neuro2a cells at 3 nM after 4 hrs by ABPP-SILAC assay

[5] = target: T4, S-formylglutathione hydrolase (Mus musculus) (UniProt Q9R0P3)
T4 sequence (whole entry): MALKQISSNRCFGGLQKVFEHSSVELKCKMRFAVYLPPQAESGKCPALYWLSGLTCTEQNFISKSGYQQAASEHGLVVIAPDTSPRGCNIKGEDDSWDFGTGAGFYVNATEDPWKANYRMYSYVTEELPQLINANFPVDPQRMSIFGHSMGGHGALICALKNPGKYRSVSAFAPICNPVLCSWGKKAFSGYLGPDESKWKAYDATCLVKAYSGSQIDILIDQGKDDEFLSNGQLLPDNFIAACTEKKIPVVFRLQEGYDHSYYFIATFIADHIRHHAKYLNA
Description: Inhibition of Esd in mouse Neuro2a cells at 3 nM after 4 hrs by ABPP-SILAC assay

Measured: inhibition

O=C(O)c1cccc(-c2ccc(-c3cn(C(=O)N4CCCCC4Cc4ccccc4)nn3)cc2)c1 (racemic)
< 50%: all assays above

O=C(N1CCCCC1c1ccccc1)n1cc(-c2ccc(-c3cccc(CO)c3)cc2)nn1 (racemic)
< 50%: all assays above

O=C(c1cccc(-c2ccc(-c3cn(C(=O)N4CCCCC4c4ccccc4)nn3)cc2)c1)N1CCCCC1 (racemic)
< 50%: all assays above
